The record followed here is publication PMC5698418 (Nature Communications, 2017).

Where a name gives a salt, the structure may show the parent alone. Read-outs that look alike come from different tables or passages of the source.

For this experiment, the system named is BDNF-induced nuclear Arc expression in primary cortical neurons. As to the kind of experiment: Chemogenomic screen: high-content image-based assay of BDNF-induced nuclear Arc expression (96-well). The format is cell-based, mouse. How it is done:
To increase the throughput of our pharmacological screening for modulators of Arc, the above mentioned assay was adapted to cultures of mouse primary cortical neurons in 96-well plates.
All 319 compounds were initially tested at a final concentration of 16.7 µM with three biological replicates.
Screening of compounds in the chemogenomic library was carried out using DIV13 primary forebrain cortical neurons cultured on poly-L-lysine/laminin-coated 96-well plates (Ibidi USA, Madison, WI). Cells were seeded at a density of 30,000 cells per well and treated with the compound library and BDNF according to the experimental design presented in Fig. 3a. After experimental treatment, cells were processed for Arc and acetyl-H3K9 immunocytochemistry according to the protocol described above. Both antigens (Arc and acetyl-H3K9) were imaged using an IN Cell Analyzer 6000 imaging system and a ×40 objective. […] High-throughput quantification of nuclear Arc immunofluorescence signal was performed in a similar fashion than the low-throughput procedure described above but with the exception that acetyl-H3K9 was used as a nuclear mask to guide the automated quantification of nuclear Arc immunofluorescence signal.

The mark [1] stands for this setting: nuclear Arc-positive cells relative to DMSO + BDNF control, negative values = decrease.
The mark [2] stands for this setting: BDNF-induced nuclear Arc expression, primary cortical neurons, chemogenomic screen.
Setting [3] is: nuclear Arc-positive cells relative to DMSO control (BDNF), negative = decrease.
[4] abbreviates: chemogenomic (SMART) screen, BDNF-induced nuclear Arc expression, primary cortical neurons, BDNF control 19.5.

Take `Cc1[nH]c2ccc(Cl)cc2c1C1=CCNCC1` [EMD-386,088]: the “Percentage of cell with nuclear Arc immunostaining above 2σ threshold” value (shortened to “Percentage of cell”) stood at 22.7%. The “Fold-change — Normalized to DMSO control (BDNF)” value (from here on “Fold-change — Normalized”) under setting [1] stood at 1.2 fold. For `O=C(O)C(O)C(O)C(=O)O.c1cnc2cc3c(cc2n1)[C@@H]1CNC[C@H]3C1` [Chantix], the “Percentage of cell” value under setting [2] turned out to be 10.1%. In addition, the “Fold-change — Normalized” value under setting [3] was -1.9 fold. For the molecule `Nc1ccn([C@@H]2O[C@H](CO)[C@@H](O)[C@H]2O)c(=O)n1` [Cytidine], the “Percentage of cell” value under setting [4] was 34.8%. In addition, the “Fold-change — Normalized” value under setting [1] stood at 1.8 fold.

With `CCOc1cc(CC(=O)N[C@@H](CC(C)C)c2ccccc2N2CCCCC2)ccc1C(=O)O` [Repaglinide], the “Percentage of cell” value under setting [4] came to 19.5%. In addition, under setting [1], the “Fold-change — Normalized” value worked out at 1.0 fold. As for `CC[C@@H](C(N)=O)N1CCCC1=O` [Levetiracetam], the “Percentage of cell” value under setting [2] came out at 7.9%.

As to `CC[C@]12CCCN3CCc4c(n(c5ccccc45)[C@@](O)(C(=O)OC)C1)[C@@H]32` [Vincamine], under setting [4], the “Percentage of cell” value amounted to 19.0%.

For the molecule `CN1CCc2cc3c(cc2[C@H]1[C@@H]1OC(=O)c2c1ccc1c2OCO1)OCO3` [(+)-Bicuculline], the “Percentage of cell” value turned out to be 20.9%. Under setting [1], the “Fold-change — Normalized” value is on record as 1.1 fold. Take `OC[C@H]1O[C@@H](OCCc2ccc(O)cc2)[C@H](O)[C@@H](O)[C@@H]1O` [Salidroside]: the “Percentage of cell” value under setting [4] worked out at 30.7%. Moreover, under setting [1], the “Fold-change — Normalized” value came out at 1.6 fold. `CN(C)CC/C=C1\c2ccccc2CSc2ccccc21` [Dosulepin]: the “Percentage of cell” value under setting [4] was 16.7%.

Consider `CN1CC2c3ccccc3Oc3ccc(Cl)cc3C2C1` (stereo not drawn) [Asenapine], for which the “Percentage of cell” value under setting [2] was 11.2%.

As to `CC(=O)/N=c1/sc(S(N)(=O)=O)nn1C` [Methazolamide], under setting [2], the “Percentage of cell” value turned out to be 11.8%.

In the case of `Cc1cccc(C)c1NC(=O)CN1CCCC1=O` [Nefiracetam], under setting [4], the “Percentage of cell” value was 19.7%. Also, the “Fold-change — Normalized” value under setting [1] is 1.0 fold.

On to `CN1CCN(CCCN2c3ccccc3Sc3ccc(Cl)cc32)CC1` [Prochlorperazine], for which, under setting [2], the “Percentage of cell” value turned out to be 0.375%. For `CN1CCc2c(c3ccccc3n2Cc2ccc(C(=O)NO)cc2)C1` [Tubastatin A], the “Percentage of cell” value under setting [4] turned out to be 21.3%. The “Fold-change — Normalized” value under setting [1] worked out at 1.1 fold.

On to `CNC1CC(c2ccc(Cl)c(Cl)c2)c2ccccc21` (stereo not drawn) [Indatraline], for which the “Percentage of cell” value stood at 0.0%. For `C#CCN(C)[C@H](C)Cc1ccccc1` [Selegiline], the “Percentage of cell” value is listed as 29.8%. In addition, the “Fold-change — Normalized” value under setting [1] is 1.5 fold. Take `CCOC(=O)c1cncn1[C@H](C)c1ccccc1` [Etomidate]: the “Percentage of cell” value worked out at 13.0%.

As for `Clc1ccc2c(c1)C(N1CCNCC1)=Nc1ccccc1O2` [Amoxapine], under setting [4], the “Percentage of cell” value is given as 12.9%. As to `C[S+]([O-])CCCCN=C=S` (stereo not drawn) [Sulforaphane], the “Percentage of cell” value under setting [4] is 18.2%.

As to `CC[C@H](C)[C@H](NC(=O)[C@H](CO)NC(=O)[C@@H](NC(=O)[C@@H]1CCCN1C(=O)[C@H](C)NC(=O)[C@@H](N)CC(N)=O)C(C)C)C(=O)N1CCC[C@H]1C(=O)N[C@@H](CCC(N)=O)C(=O)O` [AL-108], the “Percentage of cell” value under setting [2] was determined as 8.6%. Besides, the “Fold-change — Normalized” value under setting [3] is given as -2.3 fold. Take `CC(C)(C)OC(=O)c1ncn2c1[C@@H]1CCCN1C(=O)c1c(Br)cccc1-2` [Bretazenil]: the “Percentage of cell” value was 39.0%. Moreover, the “Fold-change — Normalized” value under setting [1] turned out to be 2.0 fold. Take `CCC1(C)CC(=O)NC1=O` (stereo not drawn) [Ethosuximide]: the “Percentage of cell” value under setting [4] is recorded as 21.8%. In addition, the “Fold-change — Normalized” value under setting [1] came out at 1.1 fold.

In the case of `CN[C@@H]1Cc2cccc3[nH]c(=O)n(c23)C1` [Sumanirole], the “Percentage of cell” value under setting [4] turned out to be 40.3%. For the same molecule, the “Fold-change — Normalized” value under setting [1] is 2.1 fold. Take `CN(CCOc1ccc(CC2SC(=O)NC2=O)cc1)c1ccccn1` (stereo not drawn) [Rosiglitazone]: the “Percentage of cell” value under setting [4] amounted to 29.8%. Further, the “Fold-change — Normalized” value under setting [1] is given as 1.5 fold. The like results for `C[N+]12CCC(CC1)C(OC(=O)C(O)(c1ccccc1)c1ccccc1)C2` (stereo not drawn) [Clidinium bromide] were, in that order, 24.4% and 1.2 fold. As for `CCSc1ccc2c(c1)N(CCCN1CCN(C)CC1)c1ccccc1S2` [Thiethylperazine], under setting [2], the “Percentage of cell” value worked out at 0.529%. As to `C#CCN(C)CCCOc1ccc(Cl)cc1Cl` [Clorgyline], under setting [2], the “Percentage of cell” value stood at 7.4%. Under setting [3], the “Fold-change — Normalized” value is given as -2.6 fold. Consider `O=c1c(-c2ccc(O)cc2)coc2cc(O)ccc12` [Daidzein], for which, under setting [4], the “Percentage of cell” value was 40.8%. Under setting [1], the “Fold-change — Normalized” value is given as 2.1 fold. Take `CN1CC(=O)NC1=O` [1-Methylhydantoin]: the “Percentage of cell” value under setting [4] is 31.8%. Moreover, the “Fold-change — Normalized” value under setting [1] is reported as 1.6 fold. Take `CCN1CCC[C@H]1CNC(=O)c1c(OC)ccc(Br)c1OC` [Remoxipride]: the “Percentage of cell” value under setting [4] is on record as 35.4%. Besides, the “Fold-change — Normalized” value under setting [1] is on record as 1.8 fold. Regarding `CC12CC3CC(C)(C1)CC(N)(C3)C2` [Memantine], under setting [4], the “Percentage of cell” value is on record as 17.1%. In the case of `OCCCCC#Cc1cncc(OC[C@@H]2CCN2)c1` [Sazetidine A], the “Percentage of cell” value worked out at 35.2%. The “Fold-change — Normalized” value under setting [1] stood at 1.8 fold. The corresponding values for `CC(C)CC(N(C)C)C1(c2ccc(Cl)cc2)CCC1` (stereo not drawn) [Sibutramine] are 21.3% and 1.1 fold. In the case of `CCCn1cnc2c1c(=O)n(CCCCC(C)=O)c(=O)n2C` [Propentofylline], under setting [4], the “Percentage of cell” value is listed as 33.4%. The “Fold-change — Normalized” value under setting [1] is listed as 1.7 fold. The corresponding values for `CC(C)CNC(=O)/C=C/C=C/c1ccc2c(c1)OCO2` [Piperlonguminine] are 23.0% and 1.2 fold. In the case of `CCCN[C@H]1CCc2nc(N)sc2C1` [Pramipexole], the “Percentage of cell” value under setting [4] amounted to 14.5%. Turning to `NCC1(CC(=O)O)CCCCC1` [Gabapentin], the “Percentage of cell” value is 9.0%. As to `COC1=CC(=O)O[C@@H](/C=C/c2ccccc2)C1` [Kavain], the “Percentage of cell” value was determined as 34.3%. Further, the “Fold-change — Normalized” value under setting [1] is 1.8 fold. Turning to `CN1CCC[C@@H]1Cc1c[nH]c2ccc(CCS(=O)(=O)c3ccccc3)cc12` [Eletriptan], the “Percentage of cell” value under setting [2] is given as 3.7%.

With `CCN1CCN(c2cc(-c3ccc(F)cc3)c3c(n2)CCCCCC3)CC1` [Blonanserin], the “Percentage of cell” value under setting [2] is 10.9%. `CNC1(C)C2CCC(C2)C1(C)C` (stereo not drawn) [Mecamylamine]: the “Percentage of cell” value under setting [2] stood at 11.9%. For `CN1CCN2c3ncccc3Cc3ccccc3C2C1` (stereo not drawn) [Mirtazapine], the “Percentage of cell” value under setting [2] amounted to 4.5%. With `Nc1c2c(nc3ccccc13)CCCC2O` (stereo not drawn) [Hydroxytacrine], the “Percentage of cell” value under setting [4] came to 36.9%. For the same molecule, under setting [1], the “Fold-change — Normalized” value stood at 1.9 fold. For the molecule `CC[C@H](CO)Nc1nc(NCc2ccccc2)c2ncn(C(C)C)c2n1` [Roscovitine], the “Fold-change — Normalized” value was determined as 1.3 fold and the “Percentage of cell” value is 24.9%. As to `Cc1cc(C(=O)NNCc2ccccc2)no1` [Isocarboxazid], under setting [4], the “Percentage of cell” value was determined as 21.2%. Besides, under setting [1], the “Fold-change — Normalized” value worked out at 1.1 fold. The corresponding values for `N=C(N)NC(=O)Cc1c(Cl)cccc1Cl` [Guanfacine hydrochloride] are 20.9% and 1.1 fold.

Consider `COc1ccc2c(c1)[C@]13CCCC[C@@H]1[C@H](C2)N(C)CC3` [Dextromethorphan], for which the “Percentage of cell” value under setting [4] is listed as 19.7%. The “Fold-change — Normalized” value under setting [1] is reported as 1.0 fold. The like results for `C[C@H](NCc1ccc(OCc2cccc(F)c2)cc1)C(N)=O` [Safinamide] were, in that order, 25.5% and 1.3 fold. On to `CC(=O)[C@H]1CC[C@H]2[C@@H]3CC=C4C[C@@H](O)CC[C@]4(C)[C@H]3CC[C@]12C` [Pregnenolone], for which the “Percentage of cell” value under setting [4] turned out to be 24.4%. For the same molecule, under setting [1], the “Fold-change — Normalized” value is on record as 1.2 fold. On to `CC(=O)NCCCS(=O)(=O)O` [Acamprosate], for which the “Percentage of cell” value is on record as 9.4%.
